The values that follow are results of earlier work, collected in US12728116B2, “Methods of treating multiple sclerosis” (Vanda Pharmaceuticals Inc., priority 2021, dated 2026).

The subject of the data set is adult subjects with relapsing MS. The conditions noted are these: comparison values given in brackets; cited from earlier work.

For `CCCCCCCCc1ccc(CCC(N)(CO)CO)cc1` [fingolimod], the “ECG HR effect: time of nadir post-dose (other S1P receptor modulators)” value was roughly 6 h.
`CCc1cc(/C(C)=N/OCc2ccc(C3CCCCC3)c(C(F)(F)F)c2)ccc1CN1CC(C(=O)O)C1` [siponimod]: the “ECG HR effect: time of nadir post-dose (other S1P receptor modulators)” value was 3 to 4 h.
